Among the data in ChEMBL document CHEMBL5252645, “Hydroxylated cyclopamine analogues from Veratrum californicum and their hedgehog pathway inhibiting activity” (Bioorg Med Chem, 2023) are IC50 values, retold here.

pIC50: −log10 of the molar value.

The nature of test [1]: Inhibition of Shh-induced hedgehog signalling pathway in mouse MEF cells expressing Gli-Luc reporter gene assessed as reduction in Gli1 transcription activity incubated for 24 hrs in presence of mouse shh stimulation by dual luciferase Assay. Format: cell-based. A general note: In a reporter assay the amount or activity of a reporter protein is the signal.
Test [2] is described as follows: Inhibition of Shh-induced hedgehog signalling pathway in mouse NIH/3T3 cells expressing Gli-Luc reporter gene assessed as reduction in Gli1 transcription activity incubated for 24 hrs in presence of mouse shh stimulation by dual luciferase Assay. Format: cell-based. The note with it: NIH3T3, 24 h.

The pIC50 is the IC50 on a negative log10 scale, so that one unit is a factor of ten. Regarding `C[C@@H]1CN[C@H]2[C@@H](C)[C@@]3(CC[C@@H]4C(=C3CO)C[C@H]3[C@H]4CC=C4C[C@@H](O)CC[C@@]43C)O[C@@H]2C1`, the negative-log IC50 (pIC50) is 5.55 in test [1] and 5.68 in test [2].
In the case of `CC1=C2C[C@H]3[C@@H](CC=C4C[C@@H](O)CC[C@@]43C)[C@@H]2CC[C@]12O[C@@H]1C[C@H](C)CN[C@H]1[C@H]2C` [CYCLOPAMINE], the negative logarithm of the IC50 (pIC50) was 6.96 in test [1] and 6.57 in test [2].
For `CC1=C2C[C@H]3[C@@H](CC=C4C[C@@H](O)CC[C@@]43C)[C@@H]2CC[C@]12O[C@@H]1[C@H](O)[C@H](C)CN[C@H]1[C@H]2C` the same measures were 6.68 and 6.82.
